The source of these data is patent US8507411B2, “Neoglycorandomization and digitoxin analogs” (priority 2004, dated 2013).

The structures appear in SMILES notation. Where two headings read alike, the source gives them in different places. A value given as a limit tells only on which side of the number the result lay.

One data set deals with NCI-H460. Description: High-throughput calcein AM cytotoxicity assay, NCI-H460. In kind it is cell-based, human. To be noted: read-out: IC50, NCI-H460. An excerpt:
(§1) Standard errors are depicted with error bars.

The next data set concerns MCF7. Description: High-throughput calcein AM cytotoxicity assay, MCF7. Type of data set: cell-based, human. To be noted: read-out: IC50, MCF7.
Excerpt: as §1

Data set [1] relates to nine human cancer cell lines and a mouse mammary normal epithelial control line. Description: High-throughput calcein AM cytotoxicity assay, whole cell line panel. From the text:
In the assay, live cells were distinguished by the presence of a ubiquitous intracellular enzymatic activity which converts the non-fluorescent cell-permeable molecule calcein AM to the intensely fluorescent molecule calcein, which is retained within live cells. The IC50 value for each library member represents at least six replicates of dose-response experiments conducted over five concentrations using two-fold dilutions. […] Standard errors are depicted with error bars. Numerical values and corresponding error values can be found in Table 4. Du145: […]; MCF7: human breast carcinoma; HCT-116: human colon carcinoma, Hep3B: human liver carcinoma; SF-268: human CNS glioblastoma; SK-OV-3: human ovary adenocarcinoma; NCI-H460: human lung carcinoma; A549: human lung adenocarcinoma; NCI/ADR-RES: human breast carcinoma; NmuMG: mouse mammary normal epithelial.
Cell Culture: All cell lines except NmuMG were maintained in RPMI 1640 medium from InVitrogen (Cat No. 11875-085) supplemented with 10% w/v fetal bovine serum (FBS) from ICN (Cat No. 2916154) and penicillin-streptomycin (PS) (100 U/mL and 100 μg/mL) from InVitrogen (Cat No. 15140-122). NmuMG cells were maintained in DMEM medium from InVitrogen (Cat No. 11965-084) supplemented with 10% w/v fetal bovine serum (FBS) from ICN (Cat No. 2916154), 10 μg/ml insulin (InVitrogen Cat No 12585-014), and penicillin-streptomycin (PS) (100 U/mL and 100 μg/mL) from InVitrogen (Cat No. 15140-122). Cells were harvested by trypsinization using 0.25% w/v trypsin and 0.1% w/v EDTA from InVitrogen (Cat No. 15-050-057) and then counted in a hemocytometer in duplicate with better than 10% agreement in field counts. Cells were plated at a cell density of 10,000-15,000 cells/well of each Corning Costar 96-well black tissue culture treated microtiter plate (Fisher Cat No. 07-200-627). Cells were grown for 1 h at 37° C., with 5% CO2 in a humidified incubator to allow cell attachment to occur before compound addition.
Library Member Handling and Preparation for Cytotoxicity Assays: Library members were stored at −20° C. under dessicating conditions before the assay. Library member stocks (100×) were prepared in Corning Costar polypropylene 96-well V-bottom polypropylene microtiter plates (Fisher Cat No. 07-200-695). Five serial 1:2 dilutions were made with anhydrous DMSO at 100× the final concentration used in the assay.
Library Member Addition: The library member-containing plates were diluted 1:10 with complete cell culture media. The 10× stocks (10 μL) were added to the attached cells using a Biomek FX liquid handler (Beckman-Coulter). Library member stocks (10 μL) were added to 90 μL of cells in each plate to insure full mixing of stocks with culture media using a Beckman FX liquid handler with 96-well head.
Determination of Cytotoxicity: Cells were incubated with the library members for 72 h before fluorescence reading. Test plates were removed from the incubator and washed 1× in sterile PBS to remove serum containing calcium esterases. Calcein AM reagent (30 μL, […]) was added and the cells were incubated for 30 min at 37° C. Plates were read for emission using a fluorescein filter (excitation 485 nm, emission 535 nm).
IC50 Calculation: For each library member, at least six dose response experiments were conducted. […] To calculate IC50, percent inhibitions were plotted as a function of log [concentration] and then fit to a four-parameter logistic model that allowed for a variable Hill slope using XLfit 4.1.
Cytotoxicity Assays. All cell lines except NmuMG were maintained in RPMI 1640 medium supplemented with 10% w/v fetal bovine serum (FBS) and penicillin-streptomycin (PS) (100 U/mL and 100 μg/mL).

The next data set has as its system HCT-116. Put plainly: High-throughput calcein AM cytotoxicity assay, HCT-116. Type of data set: cell-based, human.
Excerpt: as §1

In another data set the test system is A549. Put plainly: High-throughput calcein AM cytotoxicity assay, A549. In kind it is cell-based, human. To be noted: read-out: IC50, A549.
Excerpt: as §1

The test system of another data set is NmuMG. Description: cells. To be noted: read-out: IC50, NmuMG. Type of data set: cell-based, mouse. The method, boiled down:
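Viability read-out: esterase conversion of calcein AM to fluorescent calcein in live cells (ex 485, em 535 nm), 30 min at 37 °C after 72 h compound exposure. Human lines grown in RPMI 1640/10% FBS; NmuMG in DMEM/10% FBS with 10 μg/ml insulin. IC50s fit with variable Hill slope.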

The target of a further data set is Na+/K+-ATPase (Cricetulus griseus, UniProt A0A8C2N4Z0). Put plainly: Non-radioactive rubidium ion uptake assay, CHO-K1 cells. Type of data set: cell-based, hamster. To be noted: read-out: Na+/K+-ATPase Inhibition IC50. On the procedure: Na/K-ATPase Assays. Inhibition of Na^+/K^+-ATPase on HEK-293 cells and CHO-K1 cells by the library hits was determined by Aurora Biomed, Inc. using a high-throughput non-radioactive rubidium ion uptake assay. Experiments were conducted in duplicate using three different concentrations. Within each experiment, percent inhibition values at the three concentrations were expressed as the percent reduction of the maximum absorption signal observed for a 0 nM control. IC50 values were determined using the following formula: IC50=[(50−low %)/(high %−low %)]×(high conc.−low conc.)+low conc.
To assess how these structural modifications impact the ability of library members to inhibit Na^+/K^+-ATPases, a fundamental activity of cardiac glycosides (Paula, S., et al., (2005) Biochemistry 44, 498-510), library hits 5β, 15β, 23β, 27β, 33β, 40β, and digitoxin (1) were submitted to a non-radioactive rubidium uptake assay to gauge Na^+/K^+-ATPase inhibition in both […] human embryonic kidney cells and CHO-K1 hamster ovary cells (Gill, S. et al., (2004) ASSAY and Drug Development Technologies 2, 535-542).

Setting [2] is: HCT-116 cells, read-out: IC50, HCT-116.
Where [3] appears, read: NmuMG mouse mammary normal epithelial control line.

Regarding `C[C@H]1O[C@@H](O[C@H]2[C@@H](O)C[C@H](O[C@H]3[C@@H](O)C[C@H](O[C@H]4CC[C@@]5(C)[C@H](CC[C@@H]6[C@@H]5CC[C@]5(C)[C@@H](C7=CC(=O)OC7)CC[C@]65O)C4)O[C@@H]3C)O[C@@H]2C)C[C@H](O)[C@@H]1O` [digitoxin], the IC50 in the data set with NCI-H460 (Homo sapiens, NCI-H460, NCI-H460 cells) is 280 nM; in the data set on MCF7 (Homo sapiens, MCF7, MCF7 cells), 320 nM; in data set [1] (Homo sapiens, read-out: average IC50), ~440 nM; in the data set with HCT-116 (Homo sapiens, HCT-116, HCT-116 cells, read-out: IC50, HCT-116), 170 nM; in the data set with A549 (Homo sapiens, A549, A549 cells), 280 nM; in the data set with NmuMG (Mus musculus) it was > 25000 nM.
For `CON([C@H]1CC[C@@]2(C)[C@H](CC[C@@H]3[C@@H]2CC[C@]2(C)[C@@H](C4=CC(=O)OC4)CC[C@]32O)C1)[C@H]1OC[C@H](O)[C@@H](O)[C@@H]1O` [23β, L-xyloside], the IC50 was 80 nM in the data set on NCI-H460 (NCI-H460 cells); 230 nM in the data set with MCF7 (MCF7 cells); 100 nM in the data set on HCT-116 (setting [2]); > 500000 nM at Na+/K+-ATPase; 79 nM with A549 (A549 cells); 57 nM in the data set on NmuMG (setting [3]). In addition, the “cytotoxicity (in words)” value in data set [1] (cell line panel, 72 h, calcein AM) is “significantly more potent than digitoxin against some cell lines”.
On to `CON([C@H]1CC[C@@]2(C)[C@H](CC[C@@H]3[C@@H]2CC[C@]2(C)[C@@H](C4=CC(=O)OC4)CC[C@]32O)C1)[C@@H]1O[C@H](CO)[C@@H](O)[C@H](O)[C@@H]1O` [27β, D-mannoside], for which the IC50 with NCI-H460 (NCI-H460 cells) was 700 nM; in the data set with MCF7 (MCF7 cells), 1700 nM; with HCT-116 (setting [2]), 800 nM; at Na+/K+-ATPase, > 300000 nM; in the data set with A549 (A549 cells) it was 630 nM; in the data set on NmuMG (setting [3]), 1000 nM.
Turning to `CON([C@H]1CC[C@@]2(C)[C@H](CC[C@@H]3[C@@H]2CC[C@]2(C)[C@@H](C4=CC(=O)OC4)CC[C@]32O)C1)[C@H]1OC[C@H](O)[C@H](O)[C@@H]1O` [5β, L-riboside], the IC50 with NCI-H460 (NCI-H460 cells) is 53 nM; with MCF7 (MCF7 cells), 190 nM; in data set [1] (range over cell lines), 18 to 59 nM; with HCT-116 (HCT-116, 72 h, calcein AM, read-out: IC50) it was 18 ± 2 nM; in the data set on HCT-116 (setting [2]), 18 nM; on Na+/K+-ATPase, 270000 nM. For the same compound, the results for the IC50 in the data set with A549 (A549 cells) and with NmuMG (setting [3]) were 33 nM and 31 nM, respectively.
